Laboratory results taken from patent publication US4560703A, “Clavulone derivatives, process for preparing the same, and use of said compounds” (Fujisawa Pharmaceutical Co., Ltd., priority 1982, dated 1985).

Experiments:
granulation tissue = test: Inhibitory effect on proliferation of granulation tissue (fertile egg method); type: in vivo, Babcock strain chickens (fertile eggs); details: for inhibitory effect on proliferation of granulation tissue (in words): fertile egg method
Procedure: The anti-inflammatory activity was tested by the inhibitory effect on proliferation of granulation tissue which is one of the tests for determining anti-inflammatory activity as follows:
Fertile eggs of Babcock strain chickens were incubated at 38° C. for 9 days. The shell and shell membrane were then removed according to the method of D'arcy et al (cf. D'arcy, P. F. et al, Brit. J. Pharmac. Chemother., 29, 378 (1967). A sterile filter paper disc (diameter: 9 mm) was implanted on the chorio-allantoic membrane and the opening in the shell was sealed with cellophane tape. The eggs were then reincubated for 4 days and at the end of this period, the filter paper disc with granulation tissue was dissected from the chorio-allantoic membrane and then dried at 60° C. for 12 hours. In order to assess the actual amount of granulation tissue present, the weight of filter paper disc which was used in this experiment was subtracted from the total weight of the disc plus granulation tissue.
The test compound was dissolved in an organic solvent (acetone) and 20 μl of the solution was applied on the each disc. The disc was dried and then used in this test. The mean weight of the granulation tissue in each group was compared with that of the control group which was treated with a vehicle alone.
Clavulone-1, clavulone-2, clavulone-3, clavulone-4 and clavulone-5 were used as the test compounds.

[1] = tested on: DBA/MC fibrosarcoma cells; test: Inhibitory activity on proliferation of DBA/MC fibrosarcoma cells; type: cell-based, mice; details: Mus musculus, 48 hours, read-out: Inhibitory Rate (%); for inhibition at 3 µg/mL: 3.0 μg/ml; for inhibition at 20 µg/mL: 20.0 μg/ml; for inhibition at 30 µg/mL: 30.0 μg/ml
Procedure: (§1) Moreover, the anti-tumor activities of the clavulone derivatives (I) were tested by the inhibitory activity on propagation of leukemia L-1210 cells, DBA/MC fibrosarcoma cells, and B-16 melanoma cells in mice and also apothanasia effect of mice implanted with leukemia P388 cells and Ehrlich carcinoma cells as in the following experiments.
The test compounds (clavulone derivatives) were each dissolved in ethanol and diluted with a phosphate-buffer physiological saline solution and further diluted with an eagle's MEM medium in a prescribed concentration. Said eagle's MEM medium contained 20% by weight of fetal calf serum and 0.4% by weight of lactalubumin hydrolysates.
DBA/MC Fibrosarcoma cells (cell concentration: 2.5×10^4 cells/ml) were floated on the eagle's MEM medium and cultured under the conditions of 5% CO2 in air, saturated humidity and at 37° C. for 24 hours. Thereafter, the medium was replaced with the above test compound-containing medium and then it was cultured under the same conditions for 48 hours.
Immediately after the cultivation, the DBA/MC cells were fised with methanol and stained with Giemsa solution. The stained cells were counted with a microscope, and the number of stained cells was compared with that of the control group (no test compound was added). The inhibitory rate was calculated by the following equation: [formula]

leukemia L-1210 cells = test: Inhibitory activity on proliferation of leukemia L-1210 cells; type: cell-based, mice; details: Mus musculus, L1210, 96 h, 4 days, read-out: Growth Rate (%) (viable cells, control = 100); for activity at 0.1 µg/mL: 0.1 μg/ml; for activity at 0.4 µg/mL: 0.4 μg/ml; for activity at 1 µg/mL: 1.0 μg/ml; for activity at 0.2 µg/mL: 0.2 μg/ml
Procedure: as §1
The test compounds (clavulone-1, -2 and -3) were each dissolved in ethanol and diluted with a medium (RPMI-1640) in a prescribed concentration. Said RPMI-1640 medium contained 10% by weight of fetal calf serum.
Leukemia L-1210 cells (cell concentration: 1×10^5 cells/ml) were inoculated in the RPMI-1640 medium containing the test compound (0.1 to 4.0 μg/ml) and cultured under the conditions of 5% CO2 in air, saturated humidity and at 37° C. for 4 days.
Immediately after the cultivation, the L-1210 cells were stained with trypan blue. Number of viable cells (i.e. cells which were not stained with trypan blue) was counted, and the number of viable cells was compared with that in the control group (no drug was added). The results are shown in Table 2, wherein the number of viable cells in the control group was counted as 100.

leukemia P388 cells = test: Apothanasia effect in mice implanted with leukemia P388 cells; type: in vivo, BDFI male mice; details: intraperitoneal, once a day, 1st-4th and 7th-11th day
Procedure: Clavulone-2 was mixed with gum arabic in the ratio of 1.6:1 by weight and was mixed with a physiological saline solution in a prescribed concentration to give a test compound solution.
BDFI male mice (5 weeks old, weighing 22.0-24.4 g, 6 animals per group) were used.
Each mice was inoculated intraperitoneally with leukemia P388 cells (cell concentration: 1×10^7 cells/ml) in 0.2 ml Hank's solution. A solution of a test compound in a physiological saline solution was injected intraperitoneally once a day from the first day to 4th day and also from 7th day to 11th day after inoculation of the tumor cells. The control group was given with a vehicle (a physiological saline solution) alone in the same way.
The apothanasia effect of the test compound was estimated by comparing mean survival time between the medicated group and the control group by the following equation: [formula]

Ehrlich carcinoma cells = test: Anti-tumor effect in mice implanted with Ehrlich carcinoma cells; type: in vivo, female ICR strain mice; details: for MST / Survivors on 60th day/number of mice in one group / I.L.S. (%): 1st-4th day; for I.L.S. (%): 25 or more = effective
Procedure: Six or twelve female ICR strain mice (6 weeks old, weighing 22.2-26.8 g) were used.
The test drug was prepared by mixing clavulone-2 with gum arabic, suspending the mixture in a sterilized saline solution in a concentration of clavulone-2 of 10, 18 or 25 mg/10 ml.
Ehrlich carcinoma cells were serially passaged in an ascites form in ICR strain mice. The tumor cells were harvested from ICR strain mice on 6th day after inoculation, washed with and resuspended in Hank's solution in a concentration of 5×10^5 cells/ml.
Tumor cells (1×10^5 cells/0.2 ml/mouse) were implanted intraperitoneally. The test drug (clavulone-2, 10 ml/kg) was injected intraperitoneally once a day from first to 4th day after the implantation of tumor cells. Control mice were injected with a saline solution in the same as above.
The anti-tumor effect of clavulone-2 was evaluated by means of I.L.S. (%) which was calculated by the following equation: [formula]

B-16 melanoma cells = test: Anti-tumor effect on B-16 melanoma in mice; type: in vivo, C57BL/6 female mice; details: local injection
Procedure: C57BL/6 female mice (12 weeks old, weighing 18.4-21.6 g, each group: 10 animals) were used.
The test drug was prepared by dissolving clavulone-2 in ethanol and diluting with a saline solution in a concentration of clavulone-2 of 100 μg/ml.
B-16 melanoma cells were serially passaged in subcutaneously implanted form in C57BL/6 mice. The tumor cells were dissected out from C57BL/6 mice on 16th day after implantation, weighed, and mixed homogeneously with Hank's solution in a ratio of 1:9 by weight.
Tumor cells (2×10^5 cells/0.05 ml/mouse) were implanted subcutaneously. The test drug (clavulone-2, 10 μg/0.1 ml) was injected locally into tumor cell-implanted site for three weeks except the weekend. Control mice were injected with a vehicle (1% ethanol in saline solution) in the same as above.
After 21 days from the implantation of tumor cells, mice were killed by chloroform anethesia, and the tumor masses were removed and weighed. The anti-tumor effect of clavulone-2 was evaluated by means of growth inhibition rate calculated by the following equation:
Growth inhibition rate (%)=(1-T/C)×100
T: Mean tumor weight of mice treated with the test compound-containing solution
C: Mean tumor weight of mice treated with the vehicle solution.

[2] = 10 μg/0.1 ml, three weeks except weekend, 21 days

Compound | Inhibitory rate (%) (granulation tissue; Dose 30, on filter paper disc) | Inhibitory rate (%) (granulation tissue; Dose 100, on filter paper disc) | inhibitory effect on proliferation of granulation tissue (in words) (granulation tissue) | inhibition at 3 µg/mL [1] | inhibition at 20 µg/mL [1] | activity at 0.1 µg/mL (leukemia L-1210 cells) | activity at 0.4 µg/mL (leukemia L-1210 cells) | activity at 1 µg/mL (leukemia L-1210 cells) | also measured
CCCCC/C=C\CC1(OC(C)=O)C=CC(=O)/C1=C/C=C\C(CCC(=O)OC)OC(C)=O (centres unmarked) [Clavulone-1] | 15.8% | 30.4% | showed the inhibitory effect on proliferation of granulation tissue | 50% | 100% | 100% | 24.7% | 0% | –
CCCCC/C=C\CC1(OC(C)=O)C=CC(=O)/C1=C/C=C/C(CCC(=O)OC)OC(C)=O (centres unmarked) [Clavulone-2] | 10.1% | 21.0% | showed the inhibitory effect on proliferation of granulation tissue | 0% | 100% | 61.5% | 16.9% | 0% | Apothanasia effect (%) (leukemia P388 cells; 4.0 mg/kg): 130%; Apothanasia effect (%) (leukemia P388 cells; 8.0 mg/kg): 130%; MST (Ehrlich carcinoma cells; 10 mg/kg, intraperitoneal): 26.5 days; Survivors on 60th day/number of mice in one group (Ehrlich carcinoma cells; 10 mg/kg, intraperitoneal): 2/6; I.L.S. (%) (Ehrlich carcinoma cells; 10 mg/kg, intraperitoneal): 23%; animals survived 60 days after implantation of tumor cells (Ehrlich carcinoma cells; 18 mg/10 ml/kg): 50%; MST (Ehrlich carcinoma cells; 18 mg/kg, intraperitoneal): 50.0 days; Survivors on 60th day/number of mice in one group (Ehrlich carcinoma cells; 18 mg/kg, intraperitoneal): 3/6; I.L.S. (%) (Ehrlich carcinoma cells; 18 mg/kg, intraperitoneal): 133%; activity against Ehrlich ascites tumor in vivo (in words) (Ehrlich carcinoma cells; intraperitoneal): high activity against Ehrlich ascites tumor in vivo; Growth inhibition rate (%) (B-16 melanoma cells; [2]): 73%; Mean tumor weight (g; ± S.E.) (B-16 melanoma cells; [2]): 0.882 ± 0.388 g; number of survivors 21th day after implantation of tumor cells (B-16 melanoma cells; 10 μg/0.1 ml, group of 10 animals): 10; activity at 0.2 µg/mL (leukemia L-1210 cells): 55.4%
CCCCC/C=C\CC1(OC(C)=O)C=CC(=O)/C1=C\C=C\C(CCC(=O)OC)OC(C)=O (centres unmarked) [Clavulone-3] | 26.1% | 31.0% | showed the inhibitory effect on proliferation of granulation tissue | 0% | 100% | 87.5% | 17.2% | 0% | activity at 0.2 µg/mL (leukemia L-1210 cells): 52%
COC(=O)CCC(/C=C/C=C1/C(=O)C=CC1(C/C=C\CCCCCOC(C)=O)OC(C)=O)OC(C)=O (centres unmarked) [Clavulone-4] | 18.3% | 34.2% | showed the inhibitory effect on proliferation of granulation tissue | 0% | 100% | – | – | – | –
COC(=O)CCC(/C=C/C=C1\C(=O)C=CC1(C/C=C\CCCCCOC(C)=O)OC(C)=O)OC(C)=O (centres unmarked) [Clavulone-5] | 18.2% | 31.6% | showed the inhibitory effect on proliferation of granulation tissue | 0% | 100% | – | – | – | –
COC(=O)CCC(/C=C\C=C1\C(=O)C=CC1(C/C=C\CCCCCOC(C)=O)OC(C)=O)OC(C)=O (centres unmarked) [Clavulone-6] | – | – | – | 90% | 100% | – | – | – | Growth inhibition rate (%) (B-16 melanoma cells; [2]): 73%; growth of B-16 melanoma in mice (in words) (B-16 melanoma cells; 21 days): regressed significantly; inhibition at 30 µg/mL [1]: 100%
CCCCCCCCC1CCC(=O)C1CCCC(CCC(=O)OC)OC(C)=O (centres unmarked) [Clavulone-13] | – | – | – | 0% | – | – | – | – | inhibition at 30 µg/mL [1]: 100%
